The target in test [1] is Neuronal acetylcholine receptor; alpha4/beta2 (Rattus norvegicus, UniProt P09483+P12390). As to the kind of experiment: Displacement of [3H]cytisine from rat alpha4beta2 nAChR in rat brain cell membrane. The class given is cell membranes.
For test [2], the target named is Neuronal acetylcholine receptor subunit alpha-7 (Rattus norvegicus, UniProt Q05941). As to the kind of experiment: Displacement of [125I]alpha-Bungarotoxin from alpha7 nAchR in rat brain cell membrane. The class given is cell membranes.

pKi: −log10 of the molar value.

The source of these data is ChEMBL document CHEMBL1268923, “Identification of 9-fluoro substituted (-)-cytisine derivatives as ligands with high affinity for nicotinic receptors” (Bioorg Med Chem Lett, 2010).

Sequence of Neuronal acetylcholine receptor subunit alpha-7 (Q05941 whole entry): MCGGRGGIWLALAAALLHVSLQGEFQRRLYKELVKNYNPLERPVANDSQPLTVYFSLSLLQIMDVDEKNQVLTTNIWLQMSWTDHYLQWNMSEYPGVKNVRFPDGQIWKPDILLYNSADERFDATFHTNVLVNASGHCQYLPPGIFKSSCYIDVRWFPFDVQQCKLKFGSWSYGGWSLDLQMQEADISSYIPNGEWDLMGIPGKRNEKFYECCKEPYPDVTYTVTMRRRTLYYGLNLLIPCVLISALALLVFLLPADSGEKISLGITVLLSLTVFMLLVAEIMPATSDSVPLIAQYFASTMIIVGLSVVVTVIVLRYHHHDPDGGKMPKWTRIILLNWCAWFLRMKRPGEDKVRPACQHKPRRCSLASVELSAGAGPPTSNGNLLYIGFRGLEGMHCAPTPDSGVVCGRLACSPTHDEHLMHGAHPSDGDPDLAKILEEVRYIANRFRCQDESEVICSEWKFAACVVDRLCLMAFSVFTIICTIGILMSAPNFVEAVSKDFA
Sequence of Neuronal acetylcholine receptor; alpha4/beta2 (P09483 whole entry): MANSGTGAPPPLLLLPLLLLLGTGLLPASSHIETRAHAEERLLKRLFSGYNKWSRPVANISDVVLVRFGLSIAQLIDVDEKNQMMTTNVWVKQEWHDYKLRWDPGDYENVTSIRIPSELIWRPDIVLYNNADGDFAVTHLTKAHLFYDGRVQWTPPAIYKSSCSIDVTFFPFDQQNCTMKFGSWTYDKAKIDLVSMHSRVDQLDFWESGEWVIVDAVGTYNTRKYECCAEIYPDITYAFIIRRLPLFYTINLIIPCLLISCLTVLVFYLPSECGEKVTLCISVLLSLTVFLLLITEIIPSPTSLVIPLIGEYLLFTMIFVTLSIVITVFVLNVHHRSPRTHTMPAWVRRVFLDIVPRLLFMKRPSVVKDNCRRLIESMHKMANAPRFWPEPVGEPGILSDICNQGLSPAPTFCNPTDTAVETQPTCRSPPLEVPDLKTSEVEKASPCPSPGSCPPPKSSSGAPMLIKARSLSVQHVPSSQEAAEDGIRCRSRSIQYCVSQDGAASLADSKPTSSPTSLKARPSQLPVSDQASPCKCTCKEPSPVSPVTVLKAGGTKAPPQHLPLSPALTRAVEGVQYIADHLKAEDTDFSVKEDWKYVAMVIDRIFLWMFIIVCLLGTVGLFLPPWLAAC
Sequence of Neuronal acetylcholine receptor; alpha4/beta2 (P12390 whole entry): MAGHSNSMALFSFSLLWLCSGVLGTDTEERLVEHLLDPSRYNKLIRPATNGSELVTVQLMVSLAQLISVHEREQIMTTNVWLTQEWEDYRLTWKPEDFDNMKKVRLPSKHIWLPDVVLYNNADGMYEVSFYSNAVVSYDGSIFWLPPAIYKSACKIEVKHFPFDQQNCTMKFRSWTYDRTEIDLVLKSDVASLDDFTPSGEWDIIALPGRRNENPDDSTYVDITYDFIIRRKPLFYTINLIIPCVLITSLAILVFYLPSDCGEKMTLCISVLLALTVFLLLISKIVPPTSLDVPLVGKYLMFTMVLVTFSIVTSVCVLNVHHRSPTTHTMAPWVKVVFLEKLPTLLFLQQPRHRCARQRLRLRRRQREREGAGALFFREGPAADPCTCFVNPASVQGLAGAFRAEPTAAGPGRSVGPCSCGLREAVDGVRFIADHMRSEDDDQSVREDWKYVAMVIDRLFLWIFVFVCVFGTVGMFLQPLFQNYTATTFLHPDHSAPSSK

In test [1], `O=c1c(F)ccc2n1C[C@@H]1CNC[C@H]2C1` showed a pKi of 8.19.

As to `O=c1c(C(F)(F)F)ccc2n1C[C@@H]1CNC[C@H]2C1`, the figures for the pKi in test [2] and in test [1] were 6.00 and 9.66, respectively.

For `Cc1ccc2n(c1=O)C[C@@H]1CNC[C@H]2C1`, the pKi in test [2] was 5.70; in test [1], 9.62.

`O=c1cccc2n1C[C@@H]1C[C@@H]2CN(I)C1`: the figures for the negative logarithm of the Ki (pKi) in test [2] and in test [1] were 5.70 and 9.78, respectively.

Consider `O=c1c(Br)ccc2n1C[C@@H]1CNC[C@H]2C1`, for which the figures for the pKi in test [2] and in test [1] were 6.40 and 9.94, respectively.

For `O=c1cccc2n1C[C@@H]1C[C@@H]2CN(Br)C1`, the pKi in test [2] was 6.95; in test [1] it was 9.68.

Regarding `O=c1cccc2n1C[C@@H]1CNC[C@H]2C1` [CYTISINICLINE], the pKi is 6.00 in test [2] and 8.97 in test [1].
